The target in one test is human KOR (hKOR) (Homo sapiens, UniProt P41145). Particulars: cited from earlier work.
For another test, the target named is hKOR (Homo sapiens, UniProt P41145). The experiment in a line: biochemical. In kind it is biochemical. As to conditions: for Emax: read-out: Emax (percentage of maximal response to U50,488H); for Emax at 1 µM: read-out: Emax at 1 μM (percentage of maximal response to U50,488H).
hKOR, sequence (P41145 whole entry): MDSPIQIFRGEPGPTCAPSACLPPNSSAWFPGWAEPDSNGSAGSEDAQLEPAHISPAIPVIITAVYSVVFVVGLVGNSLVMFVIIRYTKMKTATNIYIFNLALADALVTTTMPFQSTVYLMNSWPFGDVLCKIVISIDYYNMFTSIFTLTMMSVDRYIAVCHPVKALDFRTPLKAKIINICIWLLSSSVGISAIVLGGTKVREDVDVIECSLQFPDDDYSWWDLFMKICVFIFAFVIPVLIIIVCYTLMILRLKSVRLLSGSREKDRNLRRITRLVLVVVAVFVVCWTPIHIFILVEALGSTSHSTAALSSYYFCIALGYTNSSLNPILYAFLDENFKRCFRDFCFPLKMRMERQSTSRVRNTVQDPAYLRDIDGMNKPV

human KOR (hKOR), sequence (P41145 whole entry): as above

For `COC(=O)[C@@H]1C[C@H](O)C(=O)[C@H]2[C@@]1(C)CC[C@H]1C(=O)O[C@H](c3ccoc3)C[C@]21C` [Compound 2, Salvinorin B], at human KOR (hKOR), the “affinity to KOR (in words)” value is on record as “comparatively much lower affinity” and the “fold lower affinity than its epimer” value is 3 fold.

With `COC[C@@]1(C)C[C@@H](C(=O)OC)[C@]2(C)CC[C@H]3C(=O)O[C@H](c4ccoc4)C[C@]3(C)[C@H]2C1=O` [Compound 9a, 2-methyl-2-methoxymethyl-salvinorin ether], on hKOR, the “agonist / antagonist activity at KOR” value is recorded as “potent full agonist” and the Emax was 123 ± 16%.

As to `COC[C@@]1(C)C[C@@H](C(=O)OC)[C@]2(C)CC[C@@H]3C(=O)O[C@H](c4ccoc4)C[C@]3(C)[C@H]2C1=O` [Compound 9b], the Emax on hKOR amounted to 103 ± 16%.

Turning to `CC[C@]1(COC)C[C@@H](C(=O)OC)[C@]2(C)CC[C@H]3C(=O)O[C@H](c4ccoc4)C[C@]3(C)[C@H]2C1=O` [Compound 10a], the Emax at 1 µM on hKOR came out at 83%.

With `CC[C@]1(COC)C[C@@H](C(=O)OC)[C@]2(C)CC[C@@H]3C(=O)O[C@H](c4ccoc4)C[C@]3(C)[C@H]2C1=O` [Compound 10b], the Emax at 1 µM at hKOR is 81%.

For `C=CC[C@]1(COC)C[C@@H](C(=O)OC)[C@]2(C)CC[C@H]3C(=O)O[C@H](c4ccoc4)C[C@]3(C)[C@H]2C1=O` [Compound 12a], at hKOR, the Emax at 1 µM came out at 99%.

For `C=CC[C@]1(COC)C[C@@H](C(=O)OC)[C@]2(C)CC[C@@H]3C(=O)O[C@H](c4ccoc4)C[C@]3(C)[C@H]2C1=O` [Compound 12b], the Emax at 1 µM on hKOR came out at 84%.

On to `COC[C@@]1(CCOCCI)C[C@@H](C(=O)OC)[C@]2(C)CC[C@H]3C(=O)O[C@H](c4ccoc4)C[C@]3(C)[C@H]2C1=O` [Compound 14a], for which the maximal effect (Emax) at 1 µM at hKOR was found to be 98%.

Consider `COC[C@@]1(CCOCCI)C[C@@H](C(=O)OC)[C@]2(C)CC[C@@H]3C(=O)O[C@H](c4ccoc4)C[C@]3(C)[C@H]2C1=O` [Compound 14b], for which the maximum response (Emax) at 1 µM on hKOR was 85%.

Usually Emax stands for the maximal effect, on the per cent scale that the assay sets.

The values above are taken from paper PMC4620681 (Bioorganic & medicinal chemistry letters, 2015).
